Measured values as given in patent US5204364A, “N-imidazolyl- and N-imidazolylmethyl-derivatives of substituted bicyclic compounds” (Farmitalia Carlo Erba, S.r.l., priority 1988, dated 1993).
Like-named read-outs stand apart in the source and are kept apart here.

Legend:
[1] = tested on: TxA2 synthase; assay: TxB2 synthesis (TxA2 synthase activity) in whole blood of normal rats during clotting, in vitro; format: cell-based, rat (Sprague Dawley); details: Rattus norvegicus, read-out: In vitro effect on TxB2 synthesis in normal rats, IC50
Procedure: The compounds of formula (I) were for example tested for their ability to inhibit TxA2 synthase activity (as reflected by TxB2 generated in whole blood during clotting) in vitro in the rat.
The effect of a representative group of compounds according to the present invention on TxB2 synthesis was evaluated in comparison with known products in whole blood of normal Sprague Dawley rats (Charles River Italy). Blood was withdrawn from the abdominal aorta of the animals under light ether anaesthesia. The blood was immediately divided in portions of 0.5 ml and distributed in glass tubes each containing a concentration of the test compound, or of the reference compounds.
Samples were then allowed to clot for 1 hour at 37° C., centrifuged at 3000 rpm for 10 min, serum collected and stored at -20° C. until assayed.

[2] = orientative acute toxicity, single oral administration; details: in vivo, fasted mice and rats, assessed on the seventh day
Procedure: The toxicity of the compounds of the invention is negligible, therefore they can be safely used in therapy. Mice and rats which had been deprived of food for nine hours were treated orally with single administrations of increasing doses of compounds of the invention, then housed and normally fed. The orientative acute toxicity (LD50) was assessed on the seventh day after the treatment and e.g. in the compound added as FCE 26572, was higher than 800 mg/kg.

[3] = whole blood, clotted 1 hour at 37° C., TxB2 by RIA, limits for p = 0.95

| Compound | IC50 [1, 3] | also measured |
| --- | --- | --- |
| CC(=O)Oc1ccccc1C(=O)O [ASA, Acetyl salicyclic acid, reference compound] | – | IC50 ([1]; 1 h): 31000 nM |
| O=C(O)c1ccc2c(c1)C=C(n1ccnc1)CC2 [FCE 22178, 5,6dihydro-7-(1H-imidazol-1-yl)-2-naphthalenecarboxylic acid, reference compound] | 1000 nM | – |
| CC1=C(n2ccnc2)CCc2ccc(C(=O)O)cc21 [FCE 25672, 5,6-dihydro-7-(1H-imidazol-1-yl)-8-methyl-2-naphthalenecarboxylic acid] | 290 nM | – |
| C=C1c2cc(C(=O)O)ccc2CCC1n1ccnc1 (stereo not drawn) [FCE 26252, 5,6,7,8-tetrahydro-7-(1H-imidazol-1-yl)-8-methylene-2-naphthalenecarboxylic acid] | 740 nM | – |
| CC1=C(Cn2ccnc2)CCc2ccc(C(=O)O)cc21 [FCE 26333, 5,6-dihydro-7-(1H-imidazol-1-ylmethyl)-8-methyl-2-naphthalenecarboxylic acid] | 43 nM | – |
| CC1=C(n2ccnc2)CCc2ccc(C(=O)O)cc21 [FCE 26572] | – | LD50 at 168 h [2]: > 800 mg/kg |
